Test results reported in patent publication US20260184773A1, “THERAPEUTIC SINGLE DOMAIN ANTIBODY” (priority 2021, published 2026).

How the values were obtained:
[1] = system: human malignancies with constitutive pSTAT3 expression; experiment: MTT assay, summary over cell lines; settings: with or without an activating KRAS mutation, p<0.001
[2] = system: Bx-PC3; experiment: MTT assay
[3] = system: phosphorylated ERK1/2 in KRAS mutant cancer cells; experiment: Western blot for phosphorylated ERK1/2; settings: MDA-MD-231 and PANC-1, 100 μg/ml for 72 hours
[4] = rats
[5] = system: BT474; experiment: MTT assay
[6] = system: Zika DAKAR, Senegal in Vero; experiment: Viral inhibition; format: cell-based, Zika virus
[7] = system: HT-1080; experiment: MTT assay
[8] = system: STAT3 in MDA-MB-231 cells; experiment: Nuclear tSTAT3/pSTAT3 staining quantified by IFA/confocal; format: cell-based, human; settings: 6-hour treatment, two-dimensional images, co-occurrence with DAPI
Protocol: Immunofluorescence and Immunohistochemical Staining: Standard procedures were used for immunohistochemistry and immunofluorescence assay (IFA) staining. Primary antibodies for IF were: Anti-t-STAT3: (Cell Signaling Technology), Anti-p-STAT3: (Cell Signaling Technology), Anti-PD-L1: (Cell Signaling Technology), Anti-VHH Antibody: (Rockland), Alexa Fluor 488-Anti-rabbitIgG: (AFanti-rabIgG, Jackson ImmunoResearch). The blocking solution, 1° and 2° antibody diluent were 1% BP: (1% BSA in PBS). All cell incubations were at 37° C. in a 5% CO2 incubator in media. 4,500 cells/well were seeded in chamber slides allowed to adhere overnight.
IFA: Wells were blocked for >30 minutes, blocking agent removed and primary antibodies were added at the following dilutions prior to overnight incubation at 5° C.: anti-VHH=1:500, anti-t-STAT3=1:300, anti-P-STAT3=1:125, anti-PD-L1=1:300. Wells were washed with PBS and incubated with AFanti-rabIgG (1:300) for >1 hour prior to washing with PBS, coverslipped and examined by fluorescent microscopy. […] Traditional fluorescence microscopy was performed using the Nikon 80i microscope and the appropriate wavelength filter. […]
Confocal microscopy: The confocal images were obtained using the Leica TCS SP8 confocal microscope. Images were quantified using Fiji software. […]

[9] = system: MCF-7; experiment: MTT assay
[10] = system: DU-145; experiment: MTT assay
[11] = system: PANC-1; experiment: MTT assay
[12] = system: HEK 293 IL-6 STAT3 reporter cell line; experiment: STAT3 luciferase reporter assay after IL-6 stimulation; format: cell-based; settings: dose of 100 μg/mL
Protocol: Promega Dual Luciferase Reporter Assay System […]: In this assay, a HEK 293 IL-6 STAT3 reporter cell line (Promega, Madison WI) was used to measure STAT3 transcriptional activity. In this cell line, induction with 40 ng/ml of IL-6 activates STAT3 transcription factors to drive luciferase reporter expression which can then be measured on a standard luminometer. […] IL-6 was added during the last 18 hours of incubation. […] At 48 hours, cells underwent lysis and luminescence measurements were made using a BMG Labtech microplate reader. Results are expressed as a percent of control wells (cells+IL-6).
Reporter cell assays were done to measure luciferase expression from HEK 293 cells transfected with a construct linking the STAT3 promoter to the luciferase gene.

[13] = system: ENBOV (Ebola) in HeLa; format: cell-based, Ebola virus; settings: HeLa, ENBOV (Ebola)
[14] = system: U87; experiment: MTT assay
[15] = system: MDA-MB-231 tumors; settings: 5 mg/kg BID intraperitoneal for 14 days, 7-day observation
[16] = system: 12-Lipoxygenase; experiment: Binding to irrelevant antigen

With “SBT-100: 15 kDa camelid single domain antibody (VHH), SEQ ID NO: 1, binds both STAT3 and KRAS” the “Tumor cell inhibitory effects” value [1] was 85-93%, the IC50 ([2]; Bx-PC3) was 2.34 µM and the “% Inhibition in 3 days with SBT-100 (SEQ ID NO: 1) ug/ml or 6.7 uM)” value ([2]; Bx-PC3, 3 days, 6.7 uM) was 90% (P < 0.001). The “Downstream phosphorylation of ERK (PERK)” value [3] was “inhibited”, the Serum half-life [4] was 1 h and the IC50 ([5]; BT474) was 1.68 µM. The “% Inhibition in 3 days with SBT-100 (SEQ ID NO: 1) ug/ml or 6.7 uM)” value ([5]; BT474, 3 days, 6.7 uM) was 93% (P < 0.001), the Comment [6] was “Inhibits Zika virus replication” and the EC50 [6] was 5.45 µM. The IC50 ([7]; HT-1080) was 2.13 µM, the “% Inhibition in 3 days with SBT-100 (SEQ ID NO: 1) ug/ml or 6.7 uM)” value ([7]; HT-1080, 3 days, 6.7 uM) was 86% (P < 0.001) and the “Original pSTAT3 staining remaining in the nucleus” value [8] was 70%. For the same substance, the “Original tSTAT3 staining remaining in the nucleus” value [8] was 41%, the IC50 ([9]; MCF-7) was 0.99 µM and the “% Inhibition in 3 days with SBT-100 (SEQ ID NO: 1) ug/ml or 6.7 uM)” value ([9]; MCF-7, 3 days, 6.7 uM) was 93% (P < 0.001). For the same substance, the IC50 ([10]; DU-145) was 1.46 µM, the “% Inhibition in 3 days with SBT-100 (SEQ ID NO: 1) ug/ml or 6.7 uM)” value ([10]; DU-145, 3 days, 6.7 uM) was 92% (P < 0.001) and the IC50 ([11]; PANC-1) was 0.38 µM. The “% Inhibition in 3 days with SBT-100 (SEQ ID NO: 1) ug/ml or 6.7 uM)” value ([11]; PANC-1, 3 days, 6.7 uM) was 85% (P < 0.001), the “Reduction in IL-6 induced pSTAT3 binding to its DNA promotor” value [12] was ~100% and the Comment [13] was “Inhibits Ebola virus replication”. The EC50 [13] was 1.27 µM, the IC50 ([14]; U87) was 4.32 µM and the “% Inhibition in 3 days with SBT-100 (SEQ ID NO: 1) ug/ml or 6.7 uM)” value ([14]; U87, 3 days, 6.7 uM) was 62% (P < 0.001). For the same substance, the “Survival and body weight” value [15] was “all the mice survived treatment and maintained their normal weight”, the Tumor growth [15] was “rapid suppression of tumor growth” and the “Binding to irrelevant antigen” value [16] was “does not bind”.
